# Where “and” joins values, the source holds several entries; their conditions need not be identical. Identical values can stand only once.
# B1: AtPDF (Arabidopsis thaliana) (protein)
# chain: AEVKRVSRKDDKVASATDVQFETPLKIVEYPDPILRAKNKRIDIFDENLKNLVDAMFDVMYKTDGIGLSAPQVGLNVQLMVFNPAGEPGEGKEIVLVNPKIKKYSDKLVPFDEGCLSFPGIYAEVVRPQSVKIDARDITGERFSISLSRLPARIFQHEYDHLEGVLFFDRMTDQVLDSIREELEALEKKYEEKTGLPSPERVEARQKRKAGVGFGKR
# Assays:
# [1] = target: AtPDF variant G41Q (Arabidopsis thaliana, UniProt Q9FUZ2, G121Q); experiment: PDF activity assay coupled to formate dehydrogenase
# AtPDF variant G41Q (Arabidopsis thaliana, UniProt Q9FUZ2, G121Q), sequence (Q9FUZ2 83-273 G121Q): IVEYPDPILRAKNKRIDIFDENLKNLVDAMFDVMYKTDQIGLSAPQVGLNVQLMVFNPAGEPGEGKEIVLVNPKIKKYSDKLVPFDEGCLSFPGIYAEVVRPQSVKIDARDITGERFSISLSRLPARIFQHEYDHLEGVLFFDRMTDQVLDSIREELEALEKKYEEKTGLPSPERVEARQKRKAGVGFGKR
# Description: (§1) Assay of PDF activity was coupled to formate dehydrogenase, where the absorbance of NADH at 340 nm was measured at 37°C as previously described. […] The kinetics parameters were derived from iterative non-linear least square calculations using the Michaelis-Menten equation based on the experimental data (Sigma-Plot; Kinetics module). […] The data were then calculated according to the method of Henderson, which can be used to determine the dissociation constant of the tight-binding competitive enzyme inhibitor [28],[49],[72] by varying both the inhibitor and substrate concentrations. To determine K I, k 5, and k 6, the reaction was initiated by the addition of enzyme as previously described,[49]. […] From the set of values obtained at various concentrations of I, k5 and k6 could be derived using kobs = k6 + k5[I]/(KI + [I]).
# [2] = target: T1, AtPDF (Arabidopsis thaliana, UniProt Q9FUZ2); experiment: Isothermal titration calorimetry (ITC); assay type: binding; design: Expression and purification of mature Arabidopsis thaliana PDF1B and all variants (i.e., AtPDF); made in house; settings: WT; from ITC (value in parentheses); 37°C
# Description: (§2) ITC experiments were performed using a VP-ITC isothermal titration calorimeter (Microcal Corp.). Experiments were performed at 37°C. […] A theoretical titration curve was fitted to the experimental data using the ORIGIN software (Microcal). This software uses the relationship between the heat generated after each injection and ΔH° (enthalpy change in kcal/mol), K A (the association binding constant in M^−1), n (number of binding sites per monomer), total protein concentration, and free and total ligand concentrations. The thermal stability of the WT and variants of Ni-AtPDF1B was studied by DSC using VP-DSC calorimetry (Microcal Corp.). DSC measurements were made with 10 µM protein solutions in buffer C. […] The same buffer was used as a reference. All solutions were degassed just before loading into the calorimeter. Scanning was performed at 1°C/min. The temperature dependence of the partial molar capacity (Cp) was expressed in kcal/K after subtracting the buffer signal using Origin(R) software.
# The volume of each reaction was 10 µl, and injections were made at 240 s intervals. Top, raw data from the titration. Each peak corresponds to the injection. Bottom, the peaks in the upper panel were integrated with ORIGIN software and the values were plotted versus injection number. Each point corresponds to the heat in µcal generated by the reaction upon each injection. […]
# [3] = target: T2, AtPDF variant G41M (Arabidopsis thaliana, UniProt Q9FUZ2, G121M); experiment: Differential scanning calorimetry (DSC), thermal stability; assay type: binding
# T2 construct: Expression and purification of mature Arabidopsis thaliana PDF1B and all variants (i.e., AtPDF); made in house
# T2 sequence (Q9FUZ2 57-273 G121M): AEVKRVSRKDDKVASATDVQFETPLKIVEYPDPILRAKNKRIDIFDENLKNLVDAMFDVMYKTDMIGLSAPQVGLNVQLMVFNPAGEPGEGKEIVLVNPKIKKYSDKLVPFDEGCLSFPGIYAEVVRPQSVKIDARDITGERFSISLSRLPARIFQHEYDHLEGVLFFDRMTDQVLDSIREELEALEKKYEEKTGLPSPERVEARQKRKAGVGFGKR
# Description: as §2
# [4] = target: T1, AtPDF; experiment: PDF activity assay coupled to formate dehydrogenase (NADH absorbance at 340 nm)
# Description: as §1
# (§3) The enzyme concentration used in the assay was 100 nM.
# [5] = target: EcPDF (Escherichia coli, UniProt P0A6K3)
# EcPDF, sequence (P0A6K3 whole entry): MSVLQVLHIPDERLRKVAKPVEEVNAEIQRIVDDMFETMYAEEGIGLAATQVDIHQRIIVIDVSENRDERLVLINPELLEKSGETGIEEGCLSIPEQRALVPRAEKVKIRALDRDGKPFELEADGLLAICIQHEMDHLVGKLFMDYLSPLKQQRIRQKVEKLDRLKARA
# Description: as §1
# [6] = target: T3, AtPDF variant I42A (Arabidopsis thaliana, UniProt Q9FUZ2, I122A); experiment: biochemical
# T3 construct: Expression and purification of mature Arabidopsis thaliana PDF1B and all variants (i.e., AtPDF); made in house
# T3 sequence (Q9FUZ2 57-273 I122A): as the sequence (Q9FUZ2 57-273 G121M) above, with M65G, I66A counted along it
# Description: as §1
# [7] = test system: AtPDF wild-type (WT) and G41M and G41Q; experiment: ΔΔGbinding calculated from Kd values; design: species or system Arabidopsis thaliana; settings: calculated from the K d values for actinonin binding to WT and G41M and G41Q
# Description: The percentage of the distance required to make a hydrogen bond (2.8 Å) is reported (dark squares). […] The values were calculated as follows. For the WT, it corresponds to the RT ln(KI*/KI) value, where R is the ideal gas constant and T is the temperature in Kelvin. RT is 0.616 kcal.mol^−1 at 37°C. For the G41M and G41Q variants, the ΔΔGbinding corresponds to RT ln(KI-G41variant/KD-WT). The obtained values are similar to that obtained if the kcat/Km substitutes the KD value in the calculation (ΔΔGbinding = RT ln(kcat/Km –G41variant/kcat/Km –WT). (EPS) Click here for additional data file.
# [8] = target: T4, AtPDF variant I42W (Arabidopsis thaliana, UniProt Q9FUZ2, I122W); experiment: Isothermal titration calorimetry (ITC); assay type: binding
# T4 construct: Expression and purification of mature Arabidopsis thaliana PDF1B and all variants (i.e., AtPDF); made in house
# Description: as §2
# (§4) The volume of each reaction was 10 µl, and injections were made at 240 s intervals. Top, raw data from the titration. Each peak corresponds to the injection. Bottom, the peaks in the upper panel were integrated with ORIGIN software and the values were plotted versus injection number. Each point corresponds to the heat in µcal generated by the reaction upon each injection. The solid line is the curve fit to the data by the Origin program. This fit yields values for K d. Experiments were done with wild type protein and others variants, and gave similar raw data and curve fit. (A) WT; (B) variant G41M; (C) variant I42W. (EPS) Click here for additional data file.
# Target sequence in this assay (Q9FUZ2 57-273 I122W): as the sequence (Q9FUZ2 57-273 G121M) above, with M65G, I66W counted along it
# [9] = target: T2, AtPDF variant G41M; experiment: Isothermal titration calorimetry (ITC); assay type: binding
# Description: as §2, §4
# [10] = target: T5, AtPDF variant I42F (Arabidopsis thaliana, UniProt Q9FUZ2, I122F); experiment: Isothermal titration calorimetry (ITC); assay type: binding
# T5 construct: Expression and purification of mature Arabidopsis thaliana PDF1B and all variants (i.e., AtPDF); made in house
# T5 sequence (Q9FUZ2 57-273 I122F): as the sequence (Q9FUZ2 57-273 G121M) above, with M65G, I66F counted along it
# Description: as §2, §4
# [11] = target: T2, AtPDF variant G41M; assay type: biochemical; settings: nm = not measurable
# Description: as §1
# [12] = test system: almost all of the AtPDF variants; experiment: Differential scanning calorimetry (DSC), thermal stability; assay type: binding, Arabidopsis thaliana
# Description: as §2
# [13] = test system: T6, AtPDF variant G41Q; experiment: as above; assay type: binding, Arabidopsis thaliana
# T6 construct: Expression and purification of mature Arabidopsis thaliana PDF1B and all variants (i.e., AtPDF); made in house
# Description: as §2
# [14] = target: T1, AtPDF; experiment: as above; assay type: binding; design: Expression and purification of mature Arabidopsis thaliana PDF1B and all variants (i.e., AtPDF); made in house; settings: 10 µM protein, 20 µM actinonin; free enzyme 61°C
# Description: as §2
# [15] = target: T4, AtPDF variant I42W; experiment: biochemical; settings: for Ki: 100 nM enzyme
# Description: as §1, §3
# Target sequence in this assay (Q9FUZ2 83-273 I122W): as the sequence (Q9FUZ2 83-273 G121Q) above, with Q39G, I40W counted along it
# [16] = target: T5, AtPDF variant I42F; experiment: biochemical; settings: for Ki: 100 nM enzyme
# Description: as §1, §3
# [17] = target: T7, AtPDF variant I130A (Arabidopsis thaliana, UniProt Q9FUZ2, I210A); experiment: biochemical; settings: for Ki: 100 nM enzyme
# T7 construct: Expression and purification of mature Arabidopsis thaliana PDF1B and all variants (i.e., AtPDF); made in house
# T7 sequence (Q9FUZ2 57-273 I210A): as the sequence (Q9FUZ2 57-273 G121M) above, with M65G, I154A counted along it
# Description: as §1, §3
# [18] = target: T8, AtPDF variant I42N (Arabidopsis thaliana, UniProt Q9FUZ2, I122N); experiment: biochemical; settings: for Ki: 100 nM enzyme
# T8 construct: Expression and purification of mature Arabidopsis thaliana PDF1B and all variants (i.e., AtPDF); made in house
# T8 sequence (Q9FUZ2 57-273 I122N): as the sequence (Q9FUZ2 57-273 G121M) above, with M65G, I66N counted along it
# Description: as §1, §3
# [19] = test system: CSCC[C@H](NC=O)C(=O)N[C@@H](C)C(=O)N[C@@H](CO)C(=O)O; experiment: purified protein, by the assay type; settings: other: G41Q, substrate Fo-Met-Ala-Ser, 100 nM enzyme, 750 µM NiCl2, 37°C
# Description: The kinetics parameters were derived from iterative non-linear least square calculations using the Michaelis-Menten equation based on the experimental data (Sigma-Plot; Kinetics module). […] The data were then calculated according to the method of Henderson, which can be used to determine the dissociation constant of the tight-binding competitive enzyme inhibitor [28],[49],[72] by varying both the inhibitor and substrate concentrations. To determine K I, k 5, and k 6, the reaction was initiated by the addition of enzyme as previously described [29],[49]. […] From the set of values obtained at various concentrations of I, k5 and k6 could be derived using kobs = k6 + k5[I]/(KI + [I]).
# [20] = substrate: CSCC[C@H](NC=O)C(=O)N[C@@H](C)C(=O)N[C@@H](CO)C(=O)O; experiment: purified protein, by the assay type; settings: other: WT, substrate Fo-Met-Ala-Ser, 100 nM enzyme, 750 µM NiCl2, 37°C
# Description: Assay of PDF activity was coupled to formate dehydrogenase, where the absorbance of NADH at 340 nm was measured at 37°C as previously described [71]. […] The kinetics parameters were derived from iterative non-linear least square calculations using the Michaelis-Menten equation based on the experimental data (Sigma-Plot; Kinetics module). […] The data were then calculated according to the method of Henderson, which can be used to determine the dissociation constant of the tight-binding competitive enzyme inhibitor [28],[49],[72] by varying both the inhibitor and substrate concentrations. To determine K I, k 5, and k 6, the reaction was initiated by the addition of enzyme as previously described [29],[49]. […] From the set of values obtained at various concentrations of I, k5 and k6 could be derived using kobs = k6 + k5[I]/(KI + [I]).
# [21] = value is k5 multiplied by 10^3, no preincubation
# [22] = value is k6 multiplied by 10^4, no preincubation
# [23] = KI*app, 2 mM substrate, actinonin preincubated 10 min at 37°C
# [24] = KI, no preincubation, started by adding enzyme
molecule,measurement,setting,value
CCCCC[C@H](CC(=O)NO)C(=O)N[C@H](C(=O)N1CCC[C@H]1CO)C(C)C [actinonin],Kd,[1],48 nM
same,KI*app,"[1]; G41Q, nm = not measurable",nM
same,Kd,[2],4.5 nM
same,increase in the T m by actinonin,[3],12 °C
same,Kd,[4],0.9 nM
same,Ki,"[4]; K I*, enzyme 100 nM, actinonin preincubated with enzyme 10 min at 37°C, assay initiated by substrate",0.9 ± 0.5 nM
same,Ki,"[4]; KI*app, Wild-type, 100 nM enzyme, 2 mM substrate, actinonin preincubated 10 min at 37°C",2.3 ± 0.3 nM
same,binding free energy difference between the two complexes,"[4]; WT, RT ln(KI*/KI), 37°C",3.1 kcal/mol
same,k6 (s^-1) x 10^4,"[4]; Wild-type, Table S3 (with KI*app), value is k6 multiplied by 10^4",10 ± 1 s^-1 x 10^4
same,"k4, dissociation of the primary enzyme-actinonin complex",[4]; assumes k3 = 10^9 M−1.s^−1 (diffusion-limited),140 s⁻¹ and 140 ± 10 s⁻¹
same,k 5 (s^−1) ×10^3,[4]; [21],63±9 s^−1 ×10^3 and 63 ± 6 s^−1 ×10^3
same,k 6 (s^−1) ×10^4,[4]; [22],4±1 s^−1 ×10^4
same,"k4, dissociation of the primary enzyme-actinonin complex",[5]; assumes k3 = 10^9 M−1.s^−1,112 ± 10 s⁻¹
same,k 5 (s^−1) ×10^3,[5]; [21],170±20 s^−1 ×10^3
same,k 6 (s^−1) ×10^4,[5]; [22],19±2 s^−1 ×10^4
same,Kd,[6],3 nM
same,ΔΔGbinding,[7],2.2 to 2.4 kcal/mol
same,Kd,[8],3.7 nM
same,Kd,[9],32 nM
same,Kd,[10],3.6 nM
same,KI*app,[11],nM
same,increase of T m by actinonin,[12],more than 20 °C
same,increase in the T m by actinonin,[13],12 °C
same,T m of AtPDF upon binding of the inhibitor,[14],81 °C
same,Ki,[15]; [23],2.8 ± 0.4 nM
same,Ki,[15]; [24],97 ± 6 nM
same,k5 (s^-1) x 10^3,[15]; value is k5 multiplied by 10^3,52 ± 5 s^-1 x 10^3
same,k6 (s^-1) x 10^4,[15]; value is k6 multiplied by 10^4,16 ± 2 s^-1 x 10^4
same,Kd,[16],2.8 nM
same,k5 (s^-1) x 10^3,"[16]; I42F, value is k5 multiplied by 10^3",89 ± 9 s^-1 x 10^3
same,k6 (s^-1) x 10^4,"[16]; I42F, value is k6 multiplied by 10^4",62 ± 6 s^-1 x 10^4
same,Ki,"[16]; KI*app, I42F, 2 mM substrate, actinonin preincubated 10 min at 37°C",2.8 ± 0.2 nM
same,Ki,"[16]; KI, I42F, no preincubation, started by adding enzyme",43 ± 5 nM
same,Ki,[17]; [23],1.5 ± 0.4 nM
same,Ki,[17]; [24],36 ± 5 nM
same,k5 (s^-1) x 10^3,[17]; value is k5 multiplied by 10^3,49 ± 5 s^-1 x 10^3
same,k6 (s^-1) x 10^4,[17]; value is k6 multiplied by 10^4,21 ± 2 s^-1 x 10^4
same,Kd,[18],6.3 nM
same,k5 (s^-1) x 10^3,"[18]; I42N, value is k5 multiplied by 10^3",52 ± 5 s^-1 x 10^3
same,k6 (s^-1) x 10^4,"[18]; I42N, value is k6 multiplied by 10^4",101 ± 10 s^-1 x 10^4
same,Ki,"[18]; KI*app, I42N, 2 mM substrate, actinonin preincubated 10 min at 37°C",6.3 ± 0.4 nM
same,Ki,"[18]; KI, I42N, no preincubation, started by adding enzyme",39 ± 4 nM
AtPDF variant G41Q (Arabidopsis thaliana; G121Q),Km,[19],6.7 ± 1.7 mM
same,kcat,[19],0.14 ± 0.02 s⁻¹
same,kcat/Km,[19],20 ± 10 M⁻¹ s⁻¹
B1,Km,[20],6.5 ± 0.7 mM
same,kcat,[20],37 ± 2 s⁻¹
same,kcat/Km,[20],5700 ± 600 M⁻¹ s⁻¹

# — article PMC3101196, “Trapping Conformational States Along Ligand-Binding Dynamics of Peptide Deformylase: The Impact of Induced Fit on Enzyme Catalysis” (PLoS Biology, 2011)
